# Where a name gives a salt, the structure may show the parent alone.
# Key:
# [1] = biological target: T1, 5-HT2CR (Homo sapiens, UniProt P28335); assay: NIMH-PDSP radioligand binding, 5-HT2C receptor
# T1 sequence (P28335 33-458): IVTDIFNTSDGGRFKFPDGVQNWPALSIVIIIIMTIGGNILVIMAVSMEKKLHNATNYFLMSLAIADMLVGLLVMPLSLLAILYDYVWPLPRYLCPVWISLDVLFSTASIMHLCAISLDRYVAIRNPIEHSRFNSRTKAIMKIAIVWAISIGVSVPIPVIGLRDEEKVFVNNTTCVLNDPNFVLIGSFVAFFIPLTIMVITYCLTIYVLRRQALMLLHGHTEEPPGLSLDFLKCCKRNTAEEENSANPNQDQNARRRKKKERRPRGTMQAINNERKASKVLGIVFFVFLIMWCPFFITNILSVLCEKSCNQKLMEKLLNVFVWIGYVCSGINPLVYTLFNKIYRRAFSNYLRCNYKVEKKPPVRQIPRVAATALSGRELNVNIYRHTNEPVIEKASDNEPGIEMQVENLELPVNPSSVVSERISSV
# [2] = biological target: SERT (Homo sapiens, UniProt P31645); assay: NIMH-PDSP radioligand binding, serotonin transporter
# [3] = biological target: 5-HT2AR (Homo sapiens, UniProt P28223); assay: NIMH-PDSP radioligand binding, 5-HT2A receptor
# [4] = biological target: H1R (Homo sapiens, UniProt P35367); assay: NIMH-PDSP radioligand binding, histamine H1 receptor
# [5] = biological target: 5-HT7R (Homo sapiens, UniProt P34969); assay: NIMH-PDSP radioligand binding, 5-HT7 receptor
# [6] = biological target: 5-HT1AR (Homo sapiens, UniProt P08908); assay: NIMH-PDSP radioligand binding, 5-HT1A receptor
# Chain of 5-HT1AR (P08908 whole entry): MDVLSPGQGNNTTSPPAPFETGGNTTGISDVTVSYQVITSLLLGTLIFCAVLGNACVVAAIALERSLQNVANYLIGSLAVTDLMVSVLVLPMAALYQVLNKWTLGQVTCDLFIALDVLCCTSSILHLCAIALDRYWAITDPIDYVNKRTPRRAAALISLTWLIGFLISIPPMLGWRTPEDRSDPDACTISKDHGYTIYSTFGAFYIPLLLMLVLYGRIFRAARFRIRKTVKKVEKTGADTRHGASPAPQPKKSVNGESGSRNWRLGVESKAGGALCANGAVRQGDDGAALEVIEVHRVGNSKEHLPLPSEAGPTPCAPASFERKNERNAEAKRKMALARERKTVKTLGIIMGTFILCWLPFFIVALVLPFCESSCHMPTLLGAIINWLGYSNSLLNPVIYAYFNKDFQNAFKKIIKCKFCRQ
# Chain of SERT (P31645 whole entry): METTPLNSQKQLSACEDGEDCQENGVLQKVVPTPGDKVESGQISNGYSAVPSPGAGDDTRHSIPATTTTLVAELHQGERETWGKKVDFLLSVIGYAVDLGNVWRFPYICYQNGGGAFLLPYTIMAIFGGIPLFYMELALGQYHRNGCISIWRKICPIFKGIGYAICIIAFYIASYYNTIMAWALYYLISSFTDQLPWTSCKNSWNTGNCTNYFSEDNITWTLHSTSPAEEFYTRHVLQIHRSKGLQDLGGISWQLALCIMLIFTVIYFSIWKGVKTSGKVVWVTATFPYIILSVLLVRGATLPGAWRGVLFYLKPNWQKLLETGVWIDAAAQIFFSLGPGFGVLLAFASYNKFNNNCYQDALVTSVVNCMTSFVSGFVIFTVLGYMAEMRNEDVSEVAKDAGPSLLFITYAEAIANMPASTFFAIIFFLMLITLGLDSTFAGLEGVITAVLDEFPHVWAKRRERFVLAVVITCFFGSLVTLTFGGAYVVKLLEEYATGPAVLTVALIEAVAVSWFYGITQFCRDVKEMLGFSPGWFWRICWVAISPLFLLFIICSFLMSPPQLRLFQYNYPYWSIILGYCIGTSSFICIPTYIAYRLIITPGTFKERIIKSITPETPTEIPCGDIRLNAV
# Chain of 5-HT2AR (P28223 whole entry): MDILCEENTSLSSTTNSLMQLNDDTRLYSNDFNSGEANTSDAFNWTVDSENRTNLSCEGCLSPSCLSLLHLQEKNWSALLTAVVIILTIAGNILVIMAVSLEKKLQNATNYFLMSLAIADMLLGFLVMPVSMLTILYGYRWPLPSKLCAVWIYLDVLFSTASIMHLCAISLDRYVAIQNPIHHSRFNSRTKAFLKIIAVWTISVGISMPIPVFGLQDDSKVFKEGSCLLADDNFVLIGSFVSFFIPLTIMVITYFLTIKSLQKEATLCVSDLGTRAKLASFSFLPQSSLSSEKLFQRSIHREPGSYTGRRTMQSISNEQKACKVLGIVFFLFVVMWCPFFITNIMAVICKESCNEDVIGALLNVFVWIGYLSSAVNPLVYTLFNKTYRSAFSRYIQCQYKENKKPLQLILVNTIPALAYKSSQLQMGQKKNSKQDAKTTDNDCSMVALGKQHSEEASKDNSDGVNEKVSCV
# Chain of H1R (P35367 whole entry): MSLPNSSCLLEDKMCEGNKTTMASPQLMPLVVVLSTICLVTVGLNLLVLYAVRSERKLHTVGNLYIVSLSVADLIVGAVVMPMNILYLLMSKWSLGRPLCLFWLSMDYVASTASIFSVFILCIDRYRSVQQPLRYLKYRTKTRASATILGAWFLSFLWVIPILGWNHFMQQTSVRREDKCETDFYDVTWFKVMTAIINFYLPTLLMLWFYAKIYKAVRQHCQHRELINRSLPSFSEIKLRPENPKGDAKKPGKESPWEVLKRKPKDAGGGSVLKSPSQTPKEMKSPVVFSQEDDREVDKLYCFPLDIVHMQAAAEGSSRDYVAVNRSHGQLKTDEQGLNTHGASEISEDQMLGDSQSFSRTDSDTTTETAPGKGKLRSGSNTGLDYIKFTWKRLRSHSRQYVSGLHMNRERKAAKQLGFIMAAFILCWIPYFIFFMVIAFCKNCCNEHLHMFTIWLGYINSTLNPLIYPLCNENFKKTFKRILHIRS
# Chain of 5-HT7R (P34969 whole entry): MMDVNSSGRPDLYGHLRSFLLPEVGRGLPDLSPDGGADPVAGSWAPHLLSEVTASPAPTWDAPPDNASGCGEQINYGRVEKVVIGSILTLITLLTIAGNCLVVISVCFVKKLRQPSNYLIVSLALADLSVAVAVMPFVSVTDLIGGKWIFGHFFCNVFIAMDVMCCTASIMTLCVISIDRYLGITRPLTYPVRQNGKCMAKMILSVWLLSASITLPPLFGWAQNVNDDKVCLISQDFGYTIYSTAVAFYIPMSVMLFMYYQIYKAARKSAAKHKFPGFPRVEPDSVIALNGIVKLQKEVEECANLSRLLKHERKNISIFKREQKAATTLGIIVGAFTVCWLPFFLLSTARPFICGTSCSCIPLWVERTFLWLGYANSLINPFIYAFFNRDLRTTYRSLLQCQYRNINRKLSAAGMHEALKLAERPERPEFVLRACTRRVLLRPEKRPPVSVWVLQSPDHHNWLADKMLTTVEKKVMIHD
SMILES,Ki 5HT2CR [1],Ki SERT [2],Ki 5-HT2A [3],SERT binding affinity (in words) [2],further results
"O=C1NCN(c2ccccc2)C12CCN(CCCCc1nc3ccccc3s1)CC2 [Compound 7, 8-(4-(benzo[d]thiazol-2-yl)butyl)-1-phenyl-1,3,8-triazaspiro[4.5]decan-4-one]",MTA,MTA,,,
O=C(CCCCN1CCC2(CC1)C(=O)NCN2c1ccccc1)c1nc2ccccc2s1 [Compound 9],MTA,,,,
"O=C1NCN(c2ccccc2)C12CCN(CCCCc1nc3ccccc3o1)CC2 [Compound 10, 8-(4-(benzo[d]oxazol-2-yl)butyl)-1-phenyl-1,3,8-triazaspiro[4.5]decan-4-one]",MTA,MTA,MTA,without significant affinity,
"O=C1NCN(c2ccccc2)C12CCN(CCCCc1c[nH]c3ccccc13)CC2 [Compound 11, 8-(4-(1H-indol-3-yl)butyl)-1-phenyl-1,3,8-triazaspiro[4.5]decan-4-one]",MTA,,,high affinity,5-HT2CR binding affinity (in words) [1]: no significant affinity; H1R binding affinity (in words) [4]: moderate binding
"O=C(CCCCN1CCN(C(c2ccc(F)cc2)c2ccc(F)cc2)CC1)c1nc2ccccc2s1 [Compound 17, 1-(benzo[d]thiazol-2-yl)-5-(4-(bis(4-fluorophenyl)methyl)piperazin-1-yl)pentan-1-one dihydrochloride]",,,,,pKi ± SE 5-HT7 [5]: 562.0/ 6.3±0.1
"Cl.O=C(CCCCN1C2CCC1CC(O)(c1ccc(Cl)cc1)C2)c1nc2ccccc2s1 (stereo not drawn) [Compound 22, 1-(Benzo[d]thiazol-2-yl)-5-(3-(4-chlorophenyl)-3-hydroxy-8-azabicyclo[3.2.1]octan-8-yl)-pentan-1-one hydrochloride]",MTA,,MTA,,Ki 5-HT1A [6]: MTA
